Here are results for two compounds from ChEMBL document CHEMBL5728961, “Compounds useful for treating gastrointestinal tract disorders” (2022).

The target in assay [1] is T1, Sodium/hydrogen exchanger 3 (Homo sapiens, UniProt P48764).
T1 sequence (P48764 whole entry): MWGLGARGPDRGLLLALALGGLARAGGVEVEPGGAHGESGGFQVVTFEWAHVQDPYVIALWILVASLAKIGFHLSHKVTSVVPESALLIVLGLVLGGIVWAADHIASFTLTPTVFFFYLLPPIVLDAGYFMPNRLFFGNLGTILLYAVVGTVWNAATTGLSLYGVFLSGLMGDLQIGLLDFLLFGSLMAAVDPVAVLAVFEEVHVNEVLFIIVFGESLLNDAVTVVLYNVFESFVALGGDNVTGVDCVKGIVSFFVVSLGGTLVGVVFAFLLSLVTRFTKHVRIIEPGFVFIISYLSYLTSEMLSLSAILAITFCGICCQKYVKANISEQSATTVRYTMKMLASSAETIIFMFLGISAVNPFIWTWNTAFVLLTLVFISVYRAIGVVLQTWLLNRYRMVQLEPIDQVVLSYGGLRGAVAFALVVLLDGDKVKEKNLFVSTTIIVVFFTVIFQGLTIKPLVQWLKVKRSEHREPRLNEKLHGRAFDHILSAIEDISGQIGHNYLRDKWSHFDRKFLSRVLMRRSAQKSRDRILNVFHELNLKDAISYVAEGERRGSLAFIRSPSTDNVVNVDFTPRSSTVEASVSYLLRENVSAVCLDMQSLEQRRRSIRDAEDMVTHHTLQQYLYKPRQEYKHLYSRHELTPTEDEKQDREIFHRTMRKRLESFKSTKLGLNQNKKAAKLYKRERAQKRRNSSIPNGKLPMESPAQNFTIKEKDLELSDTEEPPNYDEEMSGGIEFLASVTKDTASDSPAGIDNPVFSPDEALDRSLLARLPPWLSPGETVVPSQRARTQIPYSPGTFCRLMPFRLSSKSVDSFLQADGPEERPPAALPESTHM
Put plainly: Cell-Based Assay of NHE-3 Activity (Pre-Incubation Inhibition): Rat and human NHE-3-mediated Na+-dependent H+ antiport was measured using a modification of the pH sensitive dye method originally reported by Paradiso (Proc. Natl. Acad. Sci. USA. (1984) 81(23): 7436-7440). PS120 fibroblasts stably expressing human NHE3 and NHERF2 were obtained from Mark Donowitz (Baltimore, Md.). Opossum kidney (OK) cells were obtained from the ATCC and propagated per their instructions. The rat NHE-3 gene (GenBank M85300) was introduced into OK cells via electroporation, and cells were seeded into 96 well plates and grown overnight. Medium was aspirated from the wells then incubated for 30 min at 37° C. with NH4Cl-HEPES buffer (20 mM NH4Cl, 80 mM NaCl, 50 mM HEPES, 5 mM KCl, 2 mM CaCl2, 1 mM MgCl2, pH 7.4) containing 5 μM BCECF-AM. Cells were washed once with Ammonium free, Na+-free HEPES (100 mM choline, 50 mM HEPES, 10 mM glucose, 5 mM KCl, 2 mM CaCl2, 1 mM MgCl2, pH 7.4) and incubated in the same buffer for 10 minutes at room temperature to lower intracellular pH with 0-30 μM test compound. […] Changes in intracellular pH were monitored using a FLIPR Tetra® (Molecular Devices, Sunnyvale, Calif.) by excitation at λex 439 to 505 nm, and measuring BCECF fluorescence at λem 538 nm. The initial rate of the fluorescence ratio change was used as a measure of NHE-mediated Na+/H+ activity, and reported as the change in fluorescence ratio per minute.

Assay [2] concerns the target T1, Sodium/hydrogen exchanger 3. Description: Cell-Based Assay of NHE-3 Activity (Persistent Inhibition): The ability of compounds to inhibit human and rat NHE-3-mediated Na+ dependent H+ antiport after application and washout was measured using a modification of the pH sensitive dye method described above. PS120 fibroblasts stably expressing human NHE3 and NHERF2 were obtained from Mark Donowitz (Baltimore, Md.). Opossum kidney (OK) cells were obtained from the ATCC and propagated per their instructions. The rat NHE-3 gene was introduced into OK cells via electroporation, and cells were seeded into 96 well plates and grown overnight. Medium was aspirated from the wells, cells were washed once with NaCl-HEPES buffer (100 mM NaCl, 50 mM HEPES, 10 mM glucose, 5 mM KCl, 2 mM CaCl2, 1 mM MgCl2, pH 7.4), then overlayed with NaCl-HEPES buffer containing 0-30 μM test compound. After a 60 min incubation at room temperature, the test drug containing buffer was aspirated from the cells. Following aspiration, cells were washed once with NaCl-HEPES buffer without drug, then incubated for 30 min at 37° C. with NH4Cl-HEPES buffer (20 mM NH4Cl, 80 mM NaCl, 50 mM HEPES, 5 mM KCl, 2 mM CaCl2, 1 mM MgCl2, pH 7.4) containing 5 μM BCECF-AM. Cells were washed once with Ammonium free, Na+-free HEPES (100 mM choline, 50 mM HEPES, 10 mM glucose, 5 mM KCl, 2 mM CaCl2, 1 mM MgCl2, pH 7.4) and incubated in the same buffer for 10 minutes at room temperature to lower intracellular pH. NHE-3-mediated recovery of neutral intracellular pH was initiated ([…]) by addition of Na-HEPES buffer. […] Changes in intracellular pH were monitored using a FLIPR Tetra® (Molecular Devices, Sunnyvale, Calif.) by excitation at λex 439 to 505 nm, and measuring BCECF fluorescence at λem 538 nm. The initial rate of the fluorescence ratio change was used as a measure of NHE-mediated Na+/H+ activity, and reported as the change in fluorescence ratio per minute.

`O=C(NCCCCNC(=O)NCCOCCN1CC[C@H](NS(=O)(=O)c2ccc(O[C@H]3c4cc(Cl)cc(Cl)c4C[C@@H]3N3CCNCC3)c(F)c2)C1)NCCOCCN1CC[C@H](NS(=O)(=O)c2ccc(O[C@H]3c4cc(Cl)cc(Cl)c4C[C@@H]3N3CCNCC3)c(F)c2)C1`: the IC50 in assay [1] and in assay [2] was less than 100 nM each time.

For `Cc1cc(S(=O)(=O)NCCOCCOCCNC(=O)NCCCCNC(=O)NCCOCCOCCNS(=O)(=O)c2cc(C)c(O[C@H]3c4cc(Cl)cc(Cl)c4C[C@@H]3N3CCC[C@@H](N)C3)cc2F)c(F)cc1O[C@H]1c2cc(Cl)cc(Cl)c2C[C@@H]1N1CCC[C@@H](N)C1`, the IC50 in assay [1] and in assay [2] was less than 100 nM each time.

One may read the IC50 as the concentration needed to halve the response being measured.
